Test results published in patent publication US10167299B2, “1-(3-aminopropyl) substituted cyclic amine compounds, preparation method therefor, and pharmaceutical compositions and uses thereof” (SHANGHAI INSTITUTE OF MATERIA MEDICA, CHINESE ACADEMY OF …, priority 2013, dated 2019).
Where two headings read alike, the source gives them in different places.

Target: CCR5 (Homo sapiens (Human), UniProt P51681)
Assay: Calcium flux inhibition experiment
Format: cell-based
Conditions: for calcium influx inhibition effect in words, versus positive control compounds: conclusion from Table 1
Text: Experiment apparatus: FlexStation II
Experiment materials: HEK293/CCR5-Gα16 cell line, Fluo-4calcium dye (fluorescent-4 calcium ion dye) and FlexStation instrument.
Experiment theory: Activation of the receptor can cause the activation of Gα16 protein, thereby activating phospholipase C (PLC) to generate IP3 and DAG by establishing CCR5 and Ga16 co-transfected cell line. IP3 can bind to IP3 receptors on the endoplasmic reticulum and mitochondria in a cell, which can cause the release of intracellular calcium. Thus, determination of changes in intracellular calcium can be used as a method to detect CCR5 activation state. Fluo-4/AM is a fluorescent probe indicator for calcium used to measure calcium ion. As a non-polar lipid-soluble compound, after it enters into cells, AM group is dissociated to release Fluo-4 under the effect of cell lipolysis enzyme. Fluo-4 is a polar molecule and not easy to go through the lipid bilayer membrane, therefore it can stay within the cells for a long time. Ultimately, the level of activated Ga protein can be reflected by measuring the excited fluorescence intensity. If the screened compound can activate CCR5, it can greatly increase the calcium flux reaction; on the contrary, if the screened compound can antagonize CCR5, it can greatly reduce calcium flux reaction.
1. HEK293 cells which can stably express CCR5 were inoculated in a 96-well plate and incubated overnight.
2. The medium in each well into which cells were innoculated was removed and 40 μl/well of freshly prepared dye was added. The plate was placed in a 37° C. incubator and incubated for 40 minutes at constant temperature.
3. The medicament to be determined was diluted with calcium buffer to eight concentration gradients, which is 1×10^−4 M, 1×10^−5 M, 1×10^−6 M, 1×10^−7 M, 1×10^−8 M, 1×10^−9 M, 1×10^−10 M, and 1×10^−11 M, respectively, and homogeneously mixed.
4. The dye was removed. Freshly prepared calcium buffer was used to wash for one time, 50 μl of calcium buffer was added.
5. FlexStation II was used for detection. 25 μl of calcium buffer containing the medicament to be determined was added automatically from the 15th second.

[1] = HEK293/CCR5-Gα16 cell line, calcium flux, read-out: CCR5 IC50

Chain of CCR5 (P51681 whole entry): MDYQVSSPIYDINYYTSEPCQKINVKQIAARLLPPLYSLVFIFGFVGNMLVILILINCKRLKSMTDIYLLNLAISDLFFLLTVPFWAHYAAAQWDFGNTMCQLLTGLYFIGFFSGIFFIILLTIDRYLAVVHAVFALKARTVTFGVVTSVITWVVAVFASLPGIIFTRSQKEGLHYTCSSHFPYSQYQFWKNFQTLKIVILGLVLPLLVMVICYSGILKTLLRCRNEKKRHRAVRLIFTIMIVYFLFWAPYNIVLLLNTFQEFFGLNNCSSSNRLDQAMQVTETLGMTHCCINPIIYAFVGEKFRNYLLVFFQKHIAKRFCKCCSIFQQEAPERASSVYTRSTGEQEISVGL

SMILES	IC50 [1] [nM]	IC50 [nM]	calcium influx inhibition effect in words, versus positive control compounds
Cc1nnc(C(C)C)n1C1CC2CCC(C1)N2CC[C@H](NC(=O)C1CCCCC1)c1nccs1 (stereo partly drawn) [Compound 116, N-[(1S)-3-[exo-3-(3-isopropyl-5-methyl-4H-1,2,4-triazol-4-yl)-8-azabicyclo[3.2.1]octane-8-yl]-1-(thiazol-2-yl)propyl]cyclohexane-1-carboxamide]	15.6	–	–
CC(=O)N[C@@H](CCN1C2CCC1CC(n1c(C)nc3c1CCN(C(=O)C(C)C)C3)C2)c1ccc(C#N)s1 (stereo partly drawn) [Compound 143, N-{(1S)-3-[(3-endo)-3-(5-isobutyryl-2-methyl-4,5,6,7-tetrahydro-1H-imidazo[4,5-c]pyridin-1-yl)-8-azabicyclo[3.2.1]octane-8-yl]-1-(5-cyanothiophen-2-yl)-propyl}acetamide]	13.9	–	–
CC(=O)N1CCc2c(nc(C)n2C2CC3CCC(C2)N3CC[C@H](NC(=O)C2CCC(F)(F)CC2)c2ccsc2)C1 (stereo partly drawn) [Compound 42, 4,4-difluoro-N-{(1S)-1-(thiophen-3-yl)-3-[(3-endo)-3-(5-acetyl-2-methyl-4,5,6,7-tetrahydro-1H-imidazo[4,5-c]pyridin-1-yl)-8-azabicyclo[3.2.1]octane-8-yl]propyl}cyclohexane-1-carboxamide]	15.9	–	–
Cc1ccc([C@H](CCN2C3CCC2CC(n2c(C)nnc2C(C)C)C3)NC(=O)Cn2ncnn2)s1 (stereo partly drawn) [Compound 153, N-[(1S)-3-[exo-3-(3-isopropyl-5-methyl-4H-1,2,4-triazol-4-yl)-8-azabicyclo[3.2.1]octane-8-yl]-1-(5-methylthiophen-2-yl)propyl]-2-(2H-tetrazol-2-yl)acetamide]	13.4	–	–
Cc1nnc(C(C)C)n1C1CC2CCC(C1)N2CC[C@H](NC(=O)C1CCN(S(C)(=O)=O)CC1)c1ccc(C#N)s1 (stereo partly drawn) [Compound 149, N-[(1S)-3-[exo-3-(3-isopropyl-5-methyl-4H-1,2,4-triazol-4-yl)-8-azabicyclo[3.2.1]octane-8-yl]-1-(5-cyanothiophen-2-yl)propyl]-1-methylsulfonylpiperidine-4-carboxamide]	–	7.89	comparable to the positive control compounds
CC(=O)N[C@@H](CCN1C2CCC1CC(n1c(C)nc3c1CCN(C(=O)C(C)C)C3)C2)c1cccc(F)c1 (stereo partly shown) [PF-232798, reference compound]	8.29	–	–
Cc1nnc(C(C)C)n1C1CC2CCC(C1)N2CC[C@H](NC(=O)Cc1nnn[nH]1)c1ccc(C#N)s1 (stereo partly drawn) [Compound 161, N-[(1S)-3-[exo-3-(3-isopropyl-5-methyl-4H-1,2,4-triazol-4-yl)-8-azabicyclo[3.2.1]octane-8-yl]-1-(5-cyanothiophen-2-yl)propyl]-2-(1H-tetrazol-5-yl)acetamide]	–	8.36	comparable to the positive control compounds
Cc1nnc(C(C)C)n1C1CC2CCC(C1)N2CC[C@H](NC(=O)Cn1ncnn1)c1ccc(C#N)s1 (stereo partly drawn) [Compound 155, N-[(1S)-3-[exo-3-(3-isopropyl-5-methyl-4H-1,2,4-triazol-4-yl)-8-azabicyclo[3.2.1]octane-8-yl]-1-(5-cyanothiophen-2-yl)propyl]-2-(2H-tetrazol-2-yl)acetamide]	–	8.23	comparable to the positive control compounds
Cc1nnc(C(C)C)n1C1CC2CCC(C1)N2CC[C@H](NC(=O)Cn1ncnn1)c1cccs1 (stereo partly drawn) [Compound 152, N-[(1S)-3-[exo-3-(3-isopropyl-5-methyl-4H-1,2,4-triazol-4-yl)-8-azabicyclo[3.2.1]octane-8-yl]-1-(thiophen-2-yl)propyl]-2-(2H-tetrazol-2-yl)acetamide]	7.98	–	comparable to the positive control compounds
Cc1nnc(C(C)C)n1C1CC2CCC(C1)N2CC[C@H](NC(=O)C1CCN(S(C)(=O)=O)CC1)c1ccc(F)s1 (stereo partly drawn) [Compound 151, N-[(1S)-3-[exo-3-(3-isopropyl-5-methyl-4H-1,2,4-triazol-4-yl)-8-azabicyclo[3.2.1]octane-8-yl]-1-(5-fluorothiophen-2-yl)propyl]-1-methylsulfonylpiperidine-4-carboxamide]	3.45	–	better than the positive control compounds
Cc1nnc(C(C)C)n1C1CC2CCC(C1)N2CC[C@H](NC(=O)C1CCCC1)c1nccs1 (stereo partly drawn) [Compound 117, N-[(1S)-3-[exo-3-(3-isopropyl-5-methyl-4H-1,2,4-triazol-4-yl)-8-azabicyclo[3.2.1]octane-8-yl]-1-(thiazol-2-yl)propyl]cyclopentane-1-carboxamide]	16.1	–	–
Cc1nnc(C(C)C)n1C1CC2CCC(C1)N2CC[C@H](NC(=O)Cc1nnn[nH]1)c1cccs1 (stereo partly drawn) [Compound 158, N-[(1S)-3-[exo-3-(3-isopropyl-5-methyl-4H-1,2,4-triazol-4-yl)-8-azabicyclo[3.2.1]octane-8-yl]-1-(thiophen-2-yl)propyl]-2-(1H-tetrazol-5-yl)acetamide]	14.9	–	–
CCC(=O)N[C@@H](CCN1C2CCC1CC(n1c(C)nc3c1CCN(C(C)=O)C3)C2)c1nccs1 (stereo partly drawn) [Compound 124, N-{(1S)-3-[(3-endo)-3-(5-acetyl-2-methyl-4,5,6,7-tetrahydro-1H-imidazo[4,5-c]pyridin-1-yl)-8-azabicyclo[3.2.1]octane-8-yl]-1-(thiazol-2-yl)-propyl}propanamide]	11.2	–	better than the positive control compounds
CNC(=O)c1ccc([C@H](CCN2C3CCC2CC(n2c(C)nnc2C(C)C)C3)NC(=O)C2CCCCC2)s1 (stereo partly drawn) [Compound 141, 5-[(1S)-1-(cyclohexaneformamido)-3-[exo-3-(3-isopropyl-5-methyl-4H-1,2,4-triazol-4-yl)-8-azabicyclo[3.2.1]octane-8-yl]-propyl]-N-methylthiophene-2carboxamide]	8.36	–	comparable to the positive control compounds
Cc1nnc(C(C)C)n1C1CC2CCC(C1)N2CC[C@H](NC(=O)Cc1nnn[nH]1)c1ccc(Cl)s1 (stereo partly drawn) [Compound 162, N-[(1S)-3-[exo-3-(3-isopropyl-5-methyl-4H-1,2,4-triazol-4-yl)-8-azabicyclo[3.2.1]octane-8-yl]-1-(5-chlorothiophen-2-yl)propyl]-2-(1H-tetrazol-5-yl)acetamide]	1.85	–	better than the positive control compounds
CC(=O)N[C@@H](CCN1C2CCC1CC(n1c(C)nc3c1CCN(C(C)=O)C3)C2)c1ccc(C#N)s1 (stereo partly drawn) [Compound 144, N-{(1S)-3-[(3-endo)-3-(5-acetyl-2-methyl-4,5,6,7-tetrahydro-1H-imidazo[4,5-c]pyridin-1-yl)-8-azabicyclo[3.2.1]octane-8-yl]-1-(5-cyanothiophen-2-yl)-propyl}acetamide]	8.53	–	–
Cc1nnc(C(C)C)n1C1CC2CCC(C1)N2CC[C@H](NC(=O)C1CCCC1)c1ccc(Cl)s1 (stereo partly drawn) [Compound 114, N-[(1S)-3-[exo-3-(3-isopropyl-5-methyl-4H-1,2,4-triazol-4-yl)-8-azabicyclo[3.2.1]octane-8-yl]-1-(5-chlorothiophen-2-yl)propyl]cyclopentane-1-carboxamide]	9.27	–	–
Cc1ccc([C@H](CCN2C3CCC2CC(n2c(C)nnc2C(C)C)C3)NC(=O)C2CCN(S(C)(=O)=O)CC2)s1 (stereo partly shown) [Compound 147]	2.48	–	better than the positive control compounds
COc1ccc([C@H](CCN2C3CCC2CC(n2c(C)nnc2C(C)C)C3)NC(=O)C2CCN(S(C)(=O)=O)CC2)s1 (stereo partly drawn) [Compound 148, N-[(1S)-3-[exo-3-(3-isopropyl-5-methyl-4H-1,2,4-triazol-4-yl)-8-azabicyclo[3.2.1]octane-8-yl]-1-(5-methoxythiophen-2-yl)propyl]-1-methylsulfonylpiperidine-4-carboxamide]	3.42	–	better than the positive control compounds
CCc1ccc([C@H](CCN2C3CCC2CC(n2c(C)nnc2C(C)C)C3)NC(=O)C2CCCCC2)s1 (stereo partly drawn) [Compound 65, N-[(1S)-3-[exo-3-(3-isopropyl-5-methyl-4H-1,2,4-triazol-4-yl)-8-azabicyclo[3.2.1]octane-8-yl]-1-(5-ethylthiophen-2-yl)propyl]cyclohexane-1-carboxamide]	1.62	–	better than the positive control compounds
